Columns and labels:
DAT / SERT [1] = conditions: 1/IC50 at DAT divided by 1/IC50 at SERT; uptake inhibition; cited from earlier work
DAT / SERT [2] = conditions: neurotransmitter release; cited from earlier work
neuritogenesis = conditions: Ly et al. 2018, Figure S3, cited from earlier work
[3] = after 75 or 125 mg MDMA; standard deviation of 1.3 hours; cited from earlier work
[4] = biological target: 5-Hydroxytryptamine (Serotonin) Receptor 1B (Homo sapiens, UniProt P28222); assay: 5-HTR1B activity assay (Agonist/Antagonist); type: cell-based
[5] = biological target: 5-Hydroxytryptamine (Serotonin) Receptor 2B (Homo sapiens, UniProt P41595); assay: 5-HTR2B activity assay (Agonist/Antagonist); type: cell-based
human DAT = biological target: T1, human DAT (Homo sapiens, UniProt Q01959); assay: hDAT release assay ([3H]dopamine release); type: cell-based
T1 construct: expressed in transfected cells; host or cells: Chinese hamster ovary (CHO) cells

human SERT = biological target: T2, human SERT (Homo sapiens, UniProt P31645); assay: hSERT release assay ([3H]serotonin release); type: cell-based
T2 construct: expressed in transfected cells; host or cells: Chinese hamster ovary (CHO) cells

Dopamine transporter = Dopamine transporter (Homo sapiens, UniProt Q01959); assay: DAT monoamine transporter uptake assay (Blocker)
[6] = biological target: Norepinephrine transporter (Homo sapiens, UniProt P23975); assay: NET monoamine transporter uptake assay (Blocker)
DAT / NET = conditions: neurotransmitter release; cited from earlier work
[7] = biological target: Nicotinic acetylcholine Receptor α4 β2 (Homo sapiens, UniProt P17787+P43681); type: cell-based; conditions: nACHR(a4/b2), Blocker mode; positive control; read-out: RC50 (Result Type IC50)
[8] = biological target: Gamma-aminobutyric acid Receptor A; type: cell-based; conditions: GABAA, Blocker mode; positive control; read-out: RC50 (Result Type IC50)

T1 sequence (Q01959 whole entry): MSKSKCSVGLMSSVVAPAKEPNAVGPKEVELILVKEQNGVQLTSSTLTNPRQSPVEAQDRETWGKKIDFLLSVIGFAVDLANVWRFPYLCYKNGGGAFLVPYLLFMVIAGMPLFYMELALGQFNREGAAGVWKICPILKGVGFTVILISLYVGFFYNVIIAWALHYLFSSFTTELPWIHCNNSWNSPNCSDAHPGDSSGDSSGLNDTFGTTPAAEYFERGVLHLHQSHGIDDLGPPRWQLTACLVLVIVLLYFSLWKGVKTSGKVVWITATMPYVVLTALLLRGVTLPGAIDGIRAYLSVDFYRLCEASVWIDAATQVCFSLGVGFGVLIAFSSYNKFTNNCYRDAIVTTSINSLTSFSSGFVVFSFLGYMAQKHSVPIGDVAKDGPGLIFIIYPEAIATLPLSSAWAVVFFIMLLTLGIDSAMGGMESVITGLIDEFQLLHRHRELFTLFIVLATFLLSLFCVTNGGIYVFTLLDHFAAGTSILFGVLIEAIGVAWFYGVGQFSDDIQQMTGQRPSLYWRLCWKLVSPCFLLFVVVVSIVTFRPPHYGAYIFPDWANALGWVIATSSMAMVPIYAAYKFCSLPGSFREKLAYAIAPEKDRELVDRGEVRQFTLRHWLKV
Chain of Nicotinic acetylcholine Receptor α4 β2 (P43681 29-627 limits assumed): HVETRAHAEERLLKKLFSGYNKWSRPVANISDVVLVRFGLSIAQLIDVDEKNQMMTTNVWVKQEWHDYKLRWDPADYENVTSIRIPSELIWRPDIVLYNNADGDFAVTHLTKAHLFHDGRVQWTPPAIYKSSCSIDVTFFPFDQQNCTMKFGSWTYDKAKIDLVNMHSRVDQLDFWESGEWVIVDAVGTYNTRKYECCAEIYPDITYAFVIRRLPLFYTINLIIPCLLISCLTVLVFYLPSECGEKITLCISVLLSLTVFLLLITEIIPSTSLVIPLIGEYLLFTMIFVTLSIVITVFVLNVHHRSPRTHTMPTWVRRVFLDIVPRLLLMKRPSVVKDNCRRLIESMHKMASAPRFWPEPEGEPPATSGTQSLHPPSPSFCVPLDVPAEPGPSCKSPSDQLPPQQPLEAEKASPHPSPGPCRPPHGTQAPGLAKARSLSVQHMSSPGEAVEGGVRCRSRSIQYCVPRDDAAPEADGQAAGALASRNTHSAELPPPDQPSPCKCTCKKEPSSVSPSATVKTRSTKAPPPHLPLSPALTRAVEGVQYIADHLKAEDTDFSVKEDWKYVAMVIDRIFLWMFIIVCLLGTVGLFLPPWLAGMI
Chain of Nicotinic acetylcholine Receptor α4 β2 (P17787 26-502): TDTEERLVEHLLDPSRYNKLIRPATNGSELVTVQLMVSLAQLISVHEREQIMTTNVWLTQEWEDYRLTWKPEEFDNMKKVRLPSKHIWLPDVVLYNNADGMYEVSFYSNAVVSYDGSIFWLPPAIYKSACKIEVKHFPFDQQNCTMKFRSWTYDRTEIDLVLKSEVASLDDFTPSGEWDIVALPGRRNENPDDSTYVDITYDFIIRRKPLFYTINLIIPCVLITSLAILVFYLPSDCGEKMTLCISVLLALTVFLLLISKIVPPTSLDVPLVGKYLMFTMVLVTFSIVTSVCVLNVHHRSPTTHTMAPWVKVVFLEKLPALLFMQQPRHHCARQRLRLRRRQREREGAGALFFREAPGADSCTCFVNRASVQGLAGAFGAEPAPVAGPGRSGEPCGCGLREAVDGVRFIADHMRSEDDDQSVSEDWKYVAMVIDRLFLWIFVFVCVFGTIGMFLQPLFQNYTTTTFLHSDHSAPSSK
Chain of Dopamine transporter (Q01959 whole entry): as the sequence (Q01959 whole entry) above
Chain of 5-Hydroxytryptamine (Serotonin) Receptor 2B (P41595 whole entry): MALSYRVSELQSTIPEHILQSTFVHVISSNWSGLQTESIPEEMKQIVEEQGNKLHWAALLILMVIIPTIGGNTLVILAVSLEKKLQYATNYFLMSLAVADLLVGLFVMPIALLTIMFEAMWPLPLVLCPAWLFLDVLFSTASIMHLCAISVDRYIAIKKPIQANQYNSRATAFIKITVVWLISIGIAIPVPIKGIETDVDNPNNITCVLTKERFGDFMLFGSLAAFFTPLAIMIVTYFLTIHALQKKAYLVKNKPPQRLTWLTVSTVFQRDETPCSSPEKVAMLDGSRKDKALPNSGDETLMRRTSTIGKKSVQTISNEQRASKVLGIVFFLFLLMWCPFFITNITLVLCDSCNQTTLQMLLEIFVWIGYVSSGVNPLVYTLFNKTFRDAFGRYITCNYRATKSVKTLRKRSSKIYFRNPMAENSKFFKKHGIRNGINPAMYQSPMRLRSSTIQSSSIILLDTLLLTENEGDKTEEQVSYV
Chain of Norepinephrine transporter (P23975 whole entry): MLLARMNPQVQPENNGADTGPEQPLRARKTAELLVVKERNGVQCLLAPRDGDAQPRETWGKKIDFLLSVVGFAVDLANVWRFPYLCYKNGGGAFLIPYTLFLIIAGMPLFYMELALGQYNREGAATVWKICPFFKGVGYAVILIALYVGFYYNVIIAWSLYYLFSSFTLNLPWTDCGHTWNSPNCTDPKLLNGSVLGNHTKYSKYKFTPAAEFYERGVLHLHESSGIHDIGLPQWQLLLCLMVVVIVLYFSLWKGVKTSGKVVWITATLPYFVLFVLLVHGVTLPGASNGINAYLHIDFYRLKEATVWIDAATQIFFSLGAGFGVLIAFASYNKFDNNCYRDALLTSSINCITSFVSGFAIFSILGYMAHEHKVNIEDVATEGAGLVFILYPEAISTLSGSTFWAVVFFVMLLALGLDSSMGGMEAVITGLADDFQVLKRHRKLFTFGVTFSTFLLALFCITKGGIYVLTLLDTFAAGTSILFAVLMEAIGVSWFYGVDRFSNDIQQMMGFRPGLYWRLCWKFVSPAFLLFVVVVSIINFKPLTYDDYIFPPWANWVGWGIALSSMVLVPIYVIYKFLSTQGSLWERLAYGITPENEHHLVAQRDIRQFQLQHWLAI
Chain of 5-Hydroxytryptamine (Serotonin) Receptor 1B (P28222 whole entry): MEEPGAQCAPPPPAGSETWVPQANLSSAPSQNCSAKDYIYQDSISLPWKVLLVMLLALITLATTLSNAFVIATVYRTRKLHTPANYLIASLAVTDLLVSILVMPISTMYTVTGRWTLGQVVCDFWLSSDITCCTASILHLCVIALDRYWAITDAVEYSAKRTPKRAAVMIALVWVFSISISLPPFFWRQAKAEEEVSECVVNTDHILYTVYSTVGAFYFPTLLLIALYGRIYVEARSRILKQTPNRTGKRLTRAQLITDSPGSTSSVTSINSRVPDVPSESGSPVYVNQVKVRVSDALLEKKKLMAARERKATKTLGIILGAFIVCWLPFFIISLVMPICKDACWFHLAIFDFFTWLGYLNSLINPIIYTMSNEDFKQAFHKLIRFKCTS
T2 sequence (P31645 whole entry): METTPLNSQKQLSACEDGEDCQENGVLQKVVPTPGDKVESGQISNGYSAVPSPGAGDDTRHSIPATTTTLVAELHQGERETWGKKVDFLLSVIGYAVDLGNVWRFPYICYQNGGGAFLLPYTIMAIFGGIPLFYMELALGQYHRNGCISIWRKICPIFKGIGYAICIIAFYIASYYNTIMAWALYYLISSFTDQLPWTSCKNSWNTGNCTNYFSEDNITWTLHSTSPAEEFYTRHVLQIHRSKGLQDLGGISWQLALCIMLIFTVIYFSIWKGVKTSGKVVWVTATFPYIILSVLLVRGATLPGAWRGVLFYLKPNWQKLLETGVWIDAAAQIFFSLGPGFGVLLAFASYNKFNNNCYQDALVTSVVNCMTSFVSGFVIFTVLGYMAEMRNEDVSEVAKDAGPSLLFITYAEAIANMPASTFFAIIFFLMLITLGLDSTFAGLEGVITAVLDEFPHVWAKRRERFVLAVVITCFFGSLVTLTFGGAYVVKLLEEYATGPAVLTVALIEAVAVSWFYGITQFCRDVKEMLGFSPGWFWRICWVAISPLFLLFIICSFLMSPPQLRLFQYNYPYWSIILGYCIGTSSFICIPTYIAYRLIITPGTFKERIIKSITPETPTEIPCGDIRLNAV

CCNC(C)Cc1ccc2c(c1)OCO2 (stereo not drawn) [MDEA, [1-(2H-1,3-benzodioxol-5-yl)propan-2-yl](ethyl)amine]
DAT/SERT IC50 ratio (DAT / SERT [1]): 3.2 | DAT/SERT EC50 ratio (DAT / SERT [2]): 0.76

CNC(C)Cc1ccc2c(c1)OCO2 (stereo not drawn) [MDMA]
Emax for promoting neuritogenesis relative to ketamine (neuritogenesis): approximately twice that of ketamine | EC50 (neuritogenesis; read-out: EC50 for promoting neuritogenesis): 7.41 nM | Duration of acute therapeutic effects [3]: 4.2 h | DAT/SERT IC50 ratio (DAT / SERT [1]): 0.08

CNC(C)C(=O)c1ccc2ccccn12 (stereo not drawn) [Structure XLX]
EC50 [4]: 1130 nM | IC50 [5]: 2140 nM | EC50 (human DAT): 227 nM | DAT/SERT ratio* (human DAT; calculated as (DAT EC50)^−1/(SERT EC50)^−1, larger numbers indicate higher DAT selectivity): 2.1 | Relative potency of release, DAT versus 5-HT (human DAT; hMAT release assays): more potent at releasing DAT than 5-HT | EC50 (human SERT): 109 nM | IC50 (Dopamine transporter): 2410 nM | IC50 [6]: 5690 nM

C[C@H](N)Cc1ccccc1 [d-amphetamine, D-amphetamine]
DAT/NET EC50 ratio (DAT / NET): 0.9

CN[C@@H](C)Cc1ccccc1 [d-methamphetamine]
DAT/NET EC50 ratio (DAT / NET): 0.5

Dihydro-AY-erythroidine
IC50 [7]: 682 nM

Picrotoxin
IC50 [8]: 2780 nM
